{
  "source": "PubChem BioAssay AID1918946",
  "about": "(Molecular Pharmacology Branch, DTP, NCI, 2023);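 further: spheroids exposed to agents for 7 days before viability read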",
  "system": "885512-296-R-J2-PDC complex spheroid viability",
  "experiment": "Anticancer human tumor 885512-296-R-J2-PDC patient-derived breast carcinoma cell line growth inhibition",
  "settings": "for IC50: curve of first compound; for viability, T/C: stronger effect = lower value",
  "method_in_brief": "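Multicellular complex spheroids of tumor cells with human endothelial cells (HUVEC) and mesenchymal stem cells; the LSD1 inhibitor iadademstat was combined with standard-of-care or investigational agents. Top concentration at or near clinical Cmax, half-log dilutions; final DMSO ≤0.25%.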",
  "data": [
    {"smiles": "Nc1ccccc1NC(=O)c1ccc(CNC(=O)OCc2cccnc2)cc1", "note": "+ NC1CC1c1ccc(-c2cccc(O)c2)cc1", "values": [
      {"measurement": "IC50", "setting": "second compound 0.1 µM", "value": 48.2, "unit": "nM"},
      {"measurement": "IC50", "setting": "second compound 0.316 µM", "value": 50.4, "unit": "nM"},
      {"measurement": "IC50", "setting": "second compound 1 µM", "value": 41.9, "unit": "nM"},
      {"measurement": "IC50", "setting": "second compound 3.16 µM", "value": 43.1, "unit": "nM"},
      {"measurement": "IC50", "setting": "second compound 10 µM", "value": 23.9, "unit": "nM"},
      {"measurement": "viability, T/C", "setting": "second compound 0.1 µM, first compound 0.00949 µM", "value": 99.3, "unit": "%"},
      {"measurement": "viability, T/C", "setting": "second compound 0.1 µM, first compound 0.03 µM", "value": 63.1, "unit": "%"},
      {"measurement": "viability, T/C", "setting": "second compound 0.1 µM, first compound 0.0949 µM", "value": 30.5, "unit": "%"},
      {"measurement": "viability, T/C", "setting": "second compound 0.1 µM, first compound 0.3 µM", "value": 17.5, "unit": "%"},
      {"measurement": "viability, T/C", "setting": "second compound 0.1 µM, first compound 0.949 µM", "value": 6.69, "unit": "%"},
      {"measurement": "viability, T/C", "setting": "second compound 0.1 µM, first compound 3 µM", "value": 0.26, "unit": "%"},
      {"measurement": "viability, T/C", "setting": "second compound 0.316 µM, first compound 0.00949 µM", "value": 104, "unit": "%"},
      {"measurement": "viability, T/C", "setting": "second compound 0.316 µM, first compound 0.03 µM", "value": 61.7, "unit": "%"},
      {"measurement": "viability, T/C", "setting": "second compound 0.316 µM, first compound 0.0949 µM", "value": 37.2, "unit": "%"},
      {"measurement": "viability, T/C", "setting": "second compound 0.316 µM, first compound 0.3 µM", "value": 12.3, "unit": "%"},
      {"measurement": "viability, T/C", "setting": "second compound 0.316 µM, first compound 0.949 µM", "value": 5.8, "unit": "%"},
      {"measurement": "viability, T/C", "setting": "second compound 0.316 µM, first compound 3 µM", "value": 0.31, "unit": "%"},
      {"measurement": "viability, T/C", "setting": "second compound 1 µM, first compound 0.00949 µM", "value": 102, "unit": "%"},
      {"measurement": "viability, T/C", "setting": "second compound 1 µM, first compound 0.03 µM", "value": 53.8, "unit": "%"},
      {"measurement": "viability, T/C", "setting": "second compound 1 µM, first compound 0.0949 µM", "value": 35.2, "unit": "%"},
      {"measurement": "viability, T/C", "setting": "second compound 1 µM, first compound 0.3 µM", "value": 15, "unit": "%"},
      {"measurement": "viability, T/C", "setting": "second compound 1 µM, first compound 0.949 µM", "value": 5.26, "unit": "%"},
      {"measurement": "viability, T/C", "setting": "second compound 1 µM, first compound 3 µM", "value": 0.29, "unit": "%"},
      {"measurement": "viability, T/C", "setting": "second compound 3.16 µM, first compound 0.00949 µM", "value": 94.2, "unit": "%"},
      {"measurement": "viability, T/C", "setting": "second compound 3.16 µM, first compound 0.03 µM", "value": 57.9, "unit": "%"},
      {"measurement": "viability, T/C", "setting": "second compound 3.16 µM, first compound 0.0949 µM", "value": 32.8, "unit": "%"},
      {"measurement": "viability, T/C", "setting": "second compound 3.16 µM, first compound 0.3 µM", "value": 12.7, "unit": "%"},
      {"measurement": "viability, T/C", "setting": "second compound 3.16 µM, first compound 0.949 µM", "value": 5.2, "unit": "%"},
      {"measurement": "viability, T/C", "setting": "second compound 3.16 µM, first compound 3 µM", "value": 0.22, "unit": "%"},
      {"measurement": "viability, T/C", "setting": "second compound 10 µM, first compound 0.00949 µM", "value": 65.8, "unit": "%"},
      {"measurement": "viability, T/C", "setting": "second compound 10 µM, first compound 0.03 µM", "value": 45.7, "unit": "%"},
      {"measurement": "viability, T/C", "setting": "second compound 10 µM, first compound 0.0949 µM", "value": 27.9, "unit": "%"},
      {"measurement": "viability, T/C", "setting": "second compound 10 µM, first compound 0.3 µM", "value": 12.9, "unit": "%"},
      {"measurement": "viability, T/C", "setting": "second compound 10 µM, first compound 0.949 µM", "value": 4.05, "unit": "%"},
      {"measurement": "viability, T/C", "setting": "second compound 10 µM, first compound 3 µM", "value": 0.22, "unit": "%"}
    ]},
    {"smiles": "O=C(c1cc(Cc2n[nH]c(=O)c3ccccc23)ccc1F)N1CCN(C(=O)C2CC2)CC1", "note": "+ NC1CC1c1ccc(-c2cccc(O)c2)cc1", "values": [
      {"measurement": "IC50", "setting": "second compound 0.1 µM", "value": 945, "unit": "nM"},
      {"measurement": "IC50", "setting": "second compound 0.316 µM", "value": 896, "unit": "nM"},
      {"measurement": "IC50", "setting": "second compound 1 µM", "value": 805, "unit": "nM"},
      {"measurement": "IC50", "setting": "second compound 3.16 µM", "value": 660, "unit": "nM"},
      {"measurement": "IC50", "setting": "second compound 10 µM", "value": 361, "unit": "nM"},
      {"measurement": "viability, T/C", "setting": "second compound 0.1 µM, first compound 0.0316 µM", "value": 116, "unit": "%"},
      {"measurement": "viability, T/C", "setting": "second compound 0.1 µM, first compound 0.1 µM", "value": 106, "unit": "%"},
      {"measurement": "viability, T/C", "setting": "second compound 0.1 µM, first compound 0.316 µM", "value": 90.9, "unit": "%"},
      {"measurement": "viability, T/C", "setting": "second compound 0.1 µM, first compound 1 µM", "value": 48.6, "unit": "%"},
      {"measurement": "viability, T/C", "setting": "second compound 0.1 µM, first compound 3.16 µM", "value": 13.1, "unit": "%"},
      {"measurement": "viability, T/C", "setting": "second compound 0.1 µM, first compound 10 µM", "value": 4.93, "unit": "%"},
      {"measurement": "viability, T/C", "setting": "second compound 0.316 µM, first compound 0.0316 µM", "value": 103, "unit": "%"},
      {"measurement": "viability, T/C", "setting": "second compound 0.316 µM, first compound 0.1 µM", "value": 114, "unit": "%"},
      {"measurement": "viability, T/C", "setting": "second compound 0.316 µM, first compound 0.316 µM", "value": 76.6, "unit": "%"},
      {"measurement": "viability, T/C", "setting": "second compound 0.316 µM, first compound 1 µM", "value": 51.7, "unit": "%"},
      {"measurement": "viability, T/C", "setting": "second compound 0.316 µM, first compound 3.16 µM", "value": 10.8, "unit": "%"},
      {"measurement": "viability, T/C", "setting": "second compound 0.316 µM, first compound 10 µM", "value": 5.15, "unit": "%"},
      {"measurement": "viability, T/C", "setting": "second compound 1 µM, first compound 0.0316 µM", "value": 96.9, "unit": "%"},
      {"measurement": "viability, T/C", "setting": "second compound 1 µM, first compound 0.1 µM", "value": 105, "unit": "%"},
      {"measurement": "viability, T/C", "setting": "second compound 1 µM, first compound 0.316 µM", "value": 88.7, "unit": "%"},
      {"measurement": "viability, T/C", "setting": "second compound 1 µM, first compound 1 µM", "value": 40.4, "unit": "%"},
      {"measurement": "viability, T/C", "setting": "second compound 1 µM, first compound 3.16 µM", "value": 13.3, "unit": "%"},
      {"measurement": "viability, T/C", "setting": "second compound 1 µM, first compound 10 µM", "value": 4.98, "unit": "%"},
      {"measurement": "viability, T/C", "setting": "second compound 3.16 µM, first compound 0.0316 µM", "value": 111, "unit": "%"},
      {"measurement": "viability, T/C", "setting": "second compound 3.16 µM, first compound 0.1 µM", "value": 80.8, "unit": "%"},
      {"measurement": "viability, T/C", "setting": "second compound 3.16 µM, first compound 0.316 µM", "value": 75.9, "unit": "%"},
      {"measurement": "viability, T/C", "setting": "second compound 3.16 µM, first compound 1 µM", "value": 41.1, "unit": "%"},
      {"measurement": "viability, T/C", "setting": "second compound 3.16 µM, first compound 3.16 µM", "value": 9.4, "unit": "%"},
      {"measurement": "viability, T/C", "setting": "second compound 3.16 µM, first compound 10 µM", "value": 4.81, "unit": "%"},
      {"measurement": "viability, T/C", "setting": "second compound 10 µM, first compound 0.0316 µM", "value": 80.1, "unit": "%"},
      {"measurement": "viability, T/C", "setting": "second compound 10 µM, first compound 0.1 µM", "value": 70, "unit": "%"},
      {"measurement": "viability, T/C", "setting": "second compound 10 µM, first compound 0.316 µM", "value": 55.1, "unit": "%"},
      {"measurement": "viability, T/C", "setting": "second compound 10 µM, first compound 1 µM", "value": 22.2, "unit": "%"},
      {"measurement": "viability, T/C", "setting": "second compound 10 µM, first compound 3.16 µM", "value": 6.21, "unit": "%"},
      {"measurement": "viability, T/C", "setting": "second compound 10 µM, first compound 10 µM", "value": 4.07, "unit": "%"}
    ]}
  ]
}
